Test: xn = mol fraction of the nth substance listed
Conditions: 101.3 kPa, Liquid, Vibrating tube method

COCCOCCOC [2,5,8-trioxanonane] + ClCCCl
mass density [kg/m3]
Conditions | 308.15 K | 313.15 K | 318.15 K | 323.15 K | 328.15 K | 333.15 K
x2 = 0.0252 | – | 928.2 | 923.14 | 918.07 | 912.99 | 907.88
x2 = 0.0508 | – | 932.81 | 927.72 | 922.62 | 917.5 | 912.36
x2 = 0.0751 | – | 937.26 | 932.15 | 927.01 | 921.85 | 916.68
x2 = 0.1 | – | 941.89 | 936.74 | 931.58 | 926.39 | 921.19
x2 = 0.1502 | – | 951.65 | 946.43 | 941.2 | 935.95 | 930.67
x2 = 0.1999 | – | 961.71 | 956.42 | 951.12 | 945.79 | 940.45
x2 = 0.25 | – | 972.4 | 967.04 | 961.66 | 956.26 | 950.83
x2 = 0.3002 | – | 983.61 | 978.16 | 972.68 | 967.18 | 961.67
x2 = 0.3501 | – | 995.21 | 989.69 | 984.14 | 978.56 | 972.96
x2 = 0.4 | 1013.05 | 1007.46 | 1001.83 | 996.19 | 990.53 | 984.84
x2 = 0.45 | 1025.99 | 1020.29 | 1014.56 | 1008.81 | 1003.05 | 997.27
x2 = 0.5003 | 1039.78 | 1033.98 | 1028.16 | 1022.31 | 1016.44 | 1010.54
x2 = 0.5499 | 1054.03 | 1048.12 | 1042.19 | 1036.25 | 1030.26 | 1024.25
x2 = 0.5999 | 1069.2 | 1063.17 | 1057.13 | 1051.05 | 1044.95 | 1038.81
x2 = 0.6501 | 1085.36 | 1079.21 | 1073.04 | 1066.84 | 1060.6 | 1054.34
x2 = 0.7 | 1102.36 | 1096.08 | 1089.77 | 1083.44 | 1077.08 | 1070.67
x2 = 0.75 | 1120.21 | 1113.78 | 1107.32 | 1100.83 | 1094.32 | 1087.77
x2 = 0.8 | 1139.52 | 1132.93 | 1126.31 | 1119.65 | 1112.98 | 1106.28
x2 = 0.8499 | 1159.94 | 1153.19 | 1146.4 | 1139.57 | 1132.71 | 1125.84
x2 = 0.9 | 1181.94 | 1175 | 1168.02 | 1160.99 | 1153.95 | 1146.89
x2 = 0.925 | 1193.47 | 1186.42 | 1179.34 | 1172.21 | 1165.08 | 1157.9
x2 = 0.9494 | 1205.37 | 1198.22 | 1191.02 | 1183.78 | 1176.54 | 1169.26
x2 = 0.975 | 1218.05 | 1210.78 | – | – | – | –

Reference: the NIST ThermoML archive (doi:10.1021/je101361u)
